Measured values: article PMC9770960 (Science Advances, 2022)
Structures can show the parent of a compound that is named as a salt.

Target: T1, Rec1-resilin (Drosophila melanogaster, UniProt Q9V7U0)
T1 sequence (Q9V7U0 18-322 limits assumed): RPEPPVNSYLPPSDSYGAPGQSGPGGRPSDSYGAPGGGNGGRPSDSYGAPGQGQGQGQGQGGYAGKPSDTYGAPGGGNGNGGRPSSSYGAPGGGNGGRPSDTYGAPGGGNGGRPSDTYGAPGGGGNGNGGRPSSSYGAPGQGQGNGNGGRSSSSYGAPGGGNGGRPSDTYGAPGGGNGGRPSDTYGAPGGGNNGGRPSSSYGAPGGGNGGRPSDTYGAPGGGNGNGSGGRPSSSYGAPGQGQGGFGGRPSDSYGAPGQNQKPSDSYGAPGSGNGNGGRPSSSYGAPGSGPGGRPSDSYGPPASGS
Test: ANS fluorescence titration, Scatchard plot
Type: binding

Kd: 58.8 µM
Compound: O=S(=O)(O)c1cccc2cccc(Nc3ccccc3)c12 [ANS, 8-anilino-1-naphthalenesulfonic acid (ammonium salt)]
